From US20150038707A1, “PROCESS FOR MAKING CGRP RECEPTOR ANTAGONISTS” (Merck Sharp & Dohme Corp., priority 2012, published 2015)

What was measured:
Susceptible An. Gambiae = test: Bottle toxicity assay (Example 8), susceptible mosquitoes; format: in vivo, Anopheles gambiae; conditions: Strain Tested F123
Procedure: (§1) Several compounds were tested to determine their toxic effect on knockdown resistant Anopheles gambiae mosquitoes and susceptible mosquitoes. Acetone and different amounts of pesticides were added to 250 ml bottles. In one bottle, only acetone was added as a control. The bottles were rotated in all directions while uncapped until all acetone was evaporated and the insecticide was coated onto the inside surfaces of the bottle. A number of knockdown resistant Anopheles gambiae mosquitoes were added to the bottle. The number of dead mosquitoes was recorded at 1 hour and 24 hours.

[1] = system: Ae. aegypti Thai strain (pyrethroid tolerant); test: Toxicity assay on treated netting (Example 7), Thai strain; format: in vivo
Procedure: (§2) Several compounds were tested to determine their toxic effect on Ae. aegypti mosquitoes. Three mosquito strains were tested—Houston which is pyrethroid susceptible, That which is pyrethroid tolerant and Isla Mujer which is metabolically pyrethroid resistant.
(§3) The toxicity assay involved a single chamber to which treated netting was added. Twenty (20) mosquitoes were transferred to the chamber. After 1 hour, the number of knocked down mosquitoes was recorded and all mosquitoes were transferred to holding cartoons. The mosquitoes were given a 10% sucrose-soaked cotton ball and returned to the insectary. Mortaility was measured after 24 hours. A control assay using acetone-treated netting was used. Six replicates were performed at each treatment concentration.

KDR Resisant An. Gambiae = test: Bottle toxicity assay (Example 8), knockdown resistant mosquitoes; format: in vivo, Anopheles gambiae; conditions: for KDR Resisant An. Gambiae (% dead (SE)): Strain Tested F123; for effectiveness against knockdown resistant strains: summary of Table 3
Procedure: as §1

[2] = system: Ae. aegypti Houston strain (pyrethroid susceptible); test: Toxicity assay on treated netting (Example 7), Houston strain; format: in vivo
Procedure: as §2, §3

[3] = system: Ae. aegypti Isla mujeres strain (metabolically pyrethroid resistant); test: Toxicity assay on treated netting (Example 7), Isla mujeres strain; format: in vivo
Procedure: as §2, §3

[4] = system: female Aedes aegypti (Thailand strain) mosquitoes; test: Contact irritancy and spatial repellency screening (Example 4); format: in vivo; conditions: Dosage 25 nmol/cm^2; mapped with 3000 other compounds
Procedure: (§4) Four compounds of formula (I) were tested for contact irritancy (i.e., movement away from the source after physical contact) at low doses on female Aedes aegypti (Thailand strain) mosquitoes. The contact irritant response was determined by use of the contact irritant assay disclosed by Grieco et al. in “A New Classification System for the Actions of IRS Chemicals Traditionally Used for Malaria Control,” Plos One, Issue 8 (2007) (available at www.plosone.org). The assay used was a cylindrical assembly that included a metal treatment end to which 10 mosquitoes were introduced and a clear receiving chamber. The treatment end included a netting strip (nylon organdy) that was treated with the insecticide of interest at the relevant dose. A butterfly valve separated the treatment end from the remainder of the assembly.
(§5) The four compounds of formula I described in Example 2 were tested for spatial repellency (directed movement away from the chemical source without the insect making physical contact with the treated surface) at low doses on female Aedes aegypti (Thailand strain) mosquitoes. The spatial repellency response was determined by use of the spatial repellency assay disclosed by Grieco et al. in “A New Classification System for the Actions of IRS Chemicals Traditionally Used for Malaria Control” in Plos One, Issue 8 (2007) (available at www.plosone.org) which is incorporated herein by reference for all relevant and consistent purposes. The assay used was a cylindrical assembly that included a treatment chamber at one end and a control chamber at the other end. The treatment chamber included a netting strip (nylon organdy) that was treated with the insecticide of interest at the relevant dose. The treatment chamber and control chamber were connected by a clear cylinder and were separated from the clear cylinder by butterfly valves. Twenty (20) mosquitoes were introduced into the clear central chamber and the butterfly valves were opened after 30 seconds. After 10 minutes, the valves were closed and the number of mosquitoes in each chamber was counted.
Dosage was 25 nmol/cm^2. Several known compounds were also mapped for comparison—alphacypermethrin, cypermethrin, propoxur, bendiocarb, permethrin, SS220, DDT, deet and chlorpyrifos.

[5] = system: Ae. Aegypti strains Houston, That and Isla Mujer; test: Spatial repellency on metabolically resistant mosquitoes (Example 6); format: in vivo
Procedure: as §5
(§6) The spatial repellency protocol of Example 3 was used to determine spatial repellency against mosquitoes (Ae. Aegypti) that had acquired metabolic resistance against pyrethroids. DDT and transfluthrin were also tested. Three mosquito strains were tested—Houston which is pyrethroid susceptible, That which is pyrethroid tolerant and Isla Mujer which is metabolically pyrethroid resistant.

[6] = system: Ae. Aegypti, That strain (pyrethroid tolerant); test: Contact irritancy on pyrethroid tolerant mosquitoes (Example 5); format: in vivo
Procedure: as §4
(§7) Each composition was applied to the netting strip at a varied dose via a 1.5 ml acetone solution. Four (4) treatment concentrations were used—0.0025 nmol/cm^2, 0.025 nmol/cm^2, 0.25 nmol/cm^2 and 2.5 nmol/cm^2. Netting was allowed to dry for 15 minutes prior to placement in the cylinder. Control assays were performed with netting treated with acetone only.
(§8) For each run, 10 mosquitoes were transferred into the treatment end of the assembly and, after 30 seconds, the butterfly valve was opened. The valve was closed after 10 minutes and the number of mosquitoes in the clear end (i.e., the number of escaped mosquitoes) was tested.
as §6, with “contact irritancy” for “spatial repellency”, “2” for “3”, “Alphacypermethrin” for “DDT”

[7] = system: female Aedes aegypti (Thailand strain) mosquitoes; test: Contact irritancy assay on mosquitoes (Example 2); format: in vivo; conditions: netting treated at 0.0025-2.5 nmol/cm^2
Procedure: as §4, §7, §8

[8] = Dose 0.0025 μg/bottle, Time 1 hour
[9] = Dose 0.0025 μg/bottle, Time 24 hours
[10] = Dose 0.025 μg/bottle, Time 1 hour
[11] = Dose 0.025 μg/bottle, Time 24 hours
[12] = Dose 0.25 μg/bottle, Time 1 hour
[13] = Dose 0.25 μg/bottle, Time 24 hours
[14] = Dose 2.5 μg/bottle, Time 1 hour
[15] = Dose 2.5 μg/bottle, Time 24 hours
[16] = Dose 0.025 nm/cm^2, Time 1 hour
[17] = Dose 0.025 nm/cm^2, Time 24 hours
[18] = Dose 0.25 nm/cm^2, Time 24 hours
[19] = Dose 2.5 nm/cm^2, Time 24 hours

SMILES	Susceptible An. Gambiae (% dead (SE)) (Susceptible An. Gambiae; [12]) [%]	Susceptible An. Gambiae (% dead (SE)) (Susceptible An. Gambiae; [13]) [%]	Susceptible An. Gambiae (% dead (SE)) (Susceptible An. Gambiae; [14]) [%]	Susceptible An. Gambiae (% dead (SE)) (Susceptible An. Gambiae; [15]) [%]	Thai (% dead (SE)) [1, 16] [%]	Thai (% dead (SE)) [1, 17] [%]	Thai (% dead (SE)) ([1]; Dose 0.25 nm/cm^2, Time 1 hour) [%]	Thai (% dead (SE)) [1, 18] [%]	Thai (% dead (SE)) ([1]; Dose 2.5 nm/cm^2, Time 1 hour) [%]	Thai (% dead (SE)) [1, 19] [%]	KDR Resisant An. Gambiae (% dead (SE)) (KDR Resisant An. Gambiae; [12]) [%]	KDR Resisant An. Gambiae (% dead (SE)) (KDR Resisant An. Gambiae; [13]) [%]	Houston (% dead (SE)) ([2]; Dose 0.25 nm/cm^2, Time 1 hour) [%]	Houston (% dead (SE)) [2, 18] [%]	Houston (% dead (SE)) ([2]; Dose 2.5 nm/cm^2, Time 1 hour) [%]	Houston (% dead (SE)) [2, 19] [%]	Isla mujeres (% dead (SE)) ([3]; Dose 0.25 nm/cm^2, Time 1 hour) [%]	Isla mujeres (% dead (SE)) [3, 18] [%]	Isla mujeres (% dead (SE)) ([3]; Dose 2.5 nm/cm^2, Time 1 hour) [%]	Isla mujeres (% dead (SE)) [3, 19] [%]	also measured
C/C=C/C1C(C(=O)OCc2c(F)c(F)c(COC)c(F)c2F)C1(C)C (stereo in doubt) [Metafluthrin, metafluthrin, reference compound]	100	100	100	100	100	89.2	100	100	100	100	100	100	100	100	100	100	100	77.27	100	100	Susceptible An. Gambiae (% dead (SE)) (Susceptible An. Gambiae; [8]): 100%; Susceptible An. Gambiae (% dead (SE)) (Susceptible An. Gambiae; [9]): 86%; Susceptible An. Gambiae (% dead (SE)) (Susceptible An. Gambiae; [10]): 100%; Susceptible An. Gambiae (% dead (SE)) (Susceptible An. Gambiae; [11]): 100%; KDR Resisant An. Gambiae (% dead (SE)) (KDR Resisant An. Gambiae; [8]): 10%; KDR Resisant An. Gambiae (% dead (SE)) (KDR Resisant An. Gambiae; [9]): 25%; KDR Resisant An. Gambiae (% dead (SE)) (KDR Resisant An. Gambiae; [10]): 47%; KDR Resisant An. Gambiae (% dead (SE)) (KDR Resisant An. Gambiae; [11]): 86%; KDR Resisant An. Gambiae (% dead (SE)) (KDR Resisant An. Gambiae; [14]): 100%; KDR Resisant An. Gambiae (% dead (SE)) (KDR Resisant An. Gambiae; [15]): 100%; effectiveness against knockdown resistant strains (KDR Resisant An. Gambiae): less effective; Houston (% dead (SE)) [2, 16]: 100%; Houston (% dead (SE)) [2, 17]: 100%; Isla mujeres (% dead (SE)) [3, 16]: 56.3%; Isla mujeres (% dead (SE)) [3, 17]: 21.89%
CC1(C)C(C=C(Cl)Cl)C1C(=O)OC(C#N)c1cccc(Oc2ccccc2)c1 (stereo not drawn) [Alpha-cypermethrin, alpha cypermethrin, reference compound]							100	83.9	100	100			100	100	100	100	96.66	41.06	100	100	
CC(C)c1cccc(COC(=O)C2C(C=C(Cl)C(F)(F)F)C2(C)C)c1F (stereo not drawn) [Compound 1415]																					contact irritancy and spatial repellency relative to screened compounds (FIG. 3) [4]: superior contact irritancy and spatial repellency relative to most screened compounds; spatial repellency, all strains (FIG. 5) [5]: spatial repellants for all strains; contact irritancy, tolerant strain (FIG. 4) [6]: contact irritants for tolerant strains; contact irritancy, dose compared with alphacypermethrin (FIG. 1) [7]: showed contact irritancy at a lower dose than alphacypermethrin; contact irritancy (FIG. 1) ([7]; 10 minutes): showed contact irritancy at relatively low doses
CC1(C)C(C=C(Cl)Cl)C1C(=O)OCc1cccc(Oc2ccccc2)c1 (stereo not drawn) [Permethrin, permethrin, reference compound]	100	100	100	100							0	24	100	100	100	100	87.49	14.68	100	100	KDR Resisant An. Gambiae (% dead (SE)) (KDR Resisant An. Gambiae; [14]): 25%; KDR Resisant An. Gambiae (% dead (SE)) (KDR Resisant An. Gambiae; [15]): 78%; effectiveness against knockdown resistant strains (KDR Resisant An. Gambiae): less effective
CC1(C)[C@H](C=C(Cl)Cl)[C@H]1C(=O)OCc1c(F)c(F)cc(F)c1F [Transfluthrin, transfluthrin, reference compound]					100	91.7	100	100	100	100			100	100	100	100	100	100	100	100	Houston (% dead (SE)) [2, 16]: 100%; Houston (% dead (SE)) [2, 17]: 100%; Isla mujeres (% dead (SE)) [3, 16]: 100%; Isla mujeres (% dead (SE)) [3, 17]: 1.6%
